{"source": "patent US20150307774A1", "about": "“Chelates, chelating agents, conjugates derived thereof and their use” (priority 2012, published 2015)", "origin": "cited, not measured here", "details": "at this pH (7.4), calculated from literature data", "data": [{"smiles": "O=C(O)CN(CCN(CC(=O)O)CC(=O)O)CC(=O)O", "note": "[EDTA]", "values": [{"measurement": "conditional stability constant", "result": 14.53, "unit": "Log units"}]}]}
